Reference: ChEMBL document CHEMBL4196124, “Reverse Hydroxamate Inhibitors of Bone Morphogenetic Protein 1” (ACS Med Chem Lett, 2018)

Columns and labels:
[1] = target: T1, Bone morphogenetic protein 1 (Homo sapiens, UniProt P13497); experiment: Inhibition of recombinant human N-terminal 6His/flag-tagged BMP1 (121 to 721 residues) expressed in CHO cells using ((5-FAM)-ELIDQYDVQRDDSSDGSLED-K(5,6 TAMRA)-CONH2) as substrate preincubated for 10 mins followed by substrate addition measured after 60 mins
T1 sequence (P13497 whole entry): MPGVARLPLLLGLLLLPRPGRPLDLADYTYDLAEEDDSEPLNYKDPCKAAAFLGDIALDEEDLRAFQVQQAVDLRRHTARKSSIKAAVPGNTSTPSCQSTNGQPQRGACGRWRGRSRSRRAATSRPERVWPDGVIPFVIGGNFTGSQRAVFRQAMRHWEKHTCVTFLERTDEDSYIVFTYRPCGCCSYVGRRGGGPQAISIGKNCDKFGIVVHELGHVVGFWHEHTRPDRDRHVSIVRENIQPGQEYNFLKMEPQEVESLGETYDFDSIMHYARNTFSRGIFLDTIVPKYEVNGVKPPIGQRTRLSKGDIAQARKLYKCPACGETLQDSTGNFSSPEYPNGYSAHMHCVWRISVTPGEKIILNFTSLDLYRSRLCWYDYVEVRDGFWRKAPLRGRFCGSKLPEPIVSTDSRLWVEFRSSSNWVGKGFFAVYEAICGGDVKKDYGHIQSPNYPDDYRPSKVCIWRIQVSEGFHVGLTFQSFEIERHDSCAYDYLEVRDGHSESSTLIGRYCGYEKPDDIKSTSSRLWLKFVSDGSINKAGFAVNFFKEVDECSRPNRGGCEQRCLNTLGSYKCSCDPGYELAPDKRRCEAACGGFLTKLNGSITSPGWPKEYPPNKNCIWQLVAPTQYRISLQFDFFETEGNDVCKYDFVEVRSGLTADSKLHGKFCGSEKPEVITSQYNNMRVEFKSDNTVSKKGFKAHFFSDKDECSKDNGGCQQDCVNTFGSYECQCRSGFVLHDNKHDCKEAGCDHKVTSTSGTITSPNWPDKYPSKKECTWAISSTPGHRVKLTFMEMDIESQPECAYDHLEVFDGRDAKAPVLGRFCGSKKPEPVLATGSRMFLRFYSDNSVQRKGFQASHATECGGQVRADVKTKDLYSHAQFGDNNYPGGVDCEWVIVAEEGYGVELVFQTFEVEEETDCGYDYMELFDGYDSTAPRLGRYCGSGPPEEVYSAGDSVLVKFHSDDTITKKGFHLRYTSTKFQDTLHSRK

[2] = test system: Rattus norvegicus; experiment: Dose normalized AUC in po dosed rat; assay type: ADME, organism-based; conditions: in vivo
[3] = target: T2, Tolloid-like protein 2 (Homo sapiens, UniProt Q9Y6L7); experiment: Inhibition of recombinant human N-terminal 6His-tagged TLL2 (26 to 1015 residues) expressed in CHO cells using ((5-FAM)-ELIDQYDVQRDDSSDGSLED-K(5,6 TAMRA)-CONH2) as substrate preincubated for 10 mins followed by substrate addition measured after 60 mins
T2 sequence (Q9Y6L7 whole entry): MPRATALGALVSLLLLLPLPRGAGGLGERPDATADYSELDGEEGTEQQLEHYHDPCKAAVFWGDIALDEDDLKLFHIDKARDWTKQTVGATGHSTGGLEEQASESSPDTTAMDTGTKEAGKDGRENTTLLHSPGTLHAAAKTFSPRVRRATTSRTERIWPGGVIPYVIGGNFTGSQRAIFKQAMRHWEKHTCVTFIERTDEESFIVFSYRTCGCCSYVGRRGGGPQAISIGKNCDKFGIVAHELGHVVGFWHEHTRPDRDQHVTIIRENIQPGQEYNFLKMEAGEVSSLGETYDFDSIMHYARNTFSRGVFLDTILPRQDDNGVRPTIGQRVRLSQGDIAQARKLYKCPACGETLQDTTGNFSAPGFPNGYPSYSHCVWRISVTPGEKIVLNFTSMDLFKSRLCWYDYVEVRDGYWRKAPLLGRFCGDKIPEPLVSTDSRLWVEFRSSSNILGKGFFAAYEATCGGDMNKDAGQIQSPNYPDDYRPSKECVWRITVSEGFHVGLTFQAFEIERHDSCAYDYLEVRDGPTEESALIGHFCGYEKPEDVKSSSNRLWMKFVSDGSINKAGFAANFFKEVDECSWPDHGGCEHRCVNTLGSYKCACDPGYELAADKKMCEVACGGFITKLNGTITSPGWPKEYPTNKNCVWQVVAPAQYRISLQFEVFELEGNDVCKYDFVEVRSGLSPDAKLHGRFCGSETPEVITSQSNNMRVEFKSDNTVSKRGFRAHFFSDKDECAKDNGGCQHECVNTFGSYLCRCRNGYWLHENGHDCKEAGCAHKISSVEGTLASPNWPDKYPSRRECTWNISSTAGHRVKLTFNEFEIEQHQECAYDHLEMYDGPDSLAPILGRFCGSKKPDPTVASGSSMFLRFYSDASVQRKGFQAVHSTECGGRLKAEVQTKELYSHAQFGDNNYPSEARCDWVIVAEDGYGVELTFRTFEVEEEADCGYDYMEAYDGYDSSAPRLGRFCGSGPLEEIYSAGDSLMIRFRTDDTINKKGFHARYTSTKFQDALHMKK

[4] = species: Homo sapiens; experiment: Selectivity ratio of IC50 for recombinant human His-tagged TACE (1 to 671 residues) expressed in insect cells to IC50 for recombinant human N-terminal 6His/flag-tagged BMP1 (121 to 721 residues) expressed in CHO cells

IC50 [1]: 32 nM
AUC/dose [2]: 1.6 kg·h/L
IC50 [3]: 160 nM
Compound: CCCCC[C@@H](C(=O)NCNC(=O)c1ccc(-c2ccccc2)o1)[C@@H](CC)N(O)C=O
Ratio IC50 [4]: > 30
